Experimental findings from patent publication US9034336B2, “Immunomodulators and immunomodulator conjugates” (Regents of the University of Minnesota, priority 2011, dated 2015) are described below.

The target of one assay is T1, human TLR7 (Homo sapiens, UniProt Q9NYK1).
T1 construct: host or cells: HEK (HEK293) cells with NF-kB-responsive SEAP reporter
T1 sequence (Q9NYK1 27-1049): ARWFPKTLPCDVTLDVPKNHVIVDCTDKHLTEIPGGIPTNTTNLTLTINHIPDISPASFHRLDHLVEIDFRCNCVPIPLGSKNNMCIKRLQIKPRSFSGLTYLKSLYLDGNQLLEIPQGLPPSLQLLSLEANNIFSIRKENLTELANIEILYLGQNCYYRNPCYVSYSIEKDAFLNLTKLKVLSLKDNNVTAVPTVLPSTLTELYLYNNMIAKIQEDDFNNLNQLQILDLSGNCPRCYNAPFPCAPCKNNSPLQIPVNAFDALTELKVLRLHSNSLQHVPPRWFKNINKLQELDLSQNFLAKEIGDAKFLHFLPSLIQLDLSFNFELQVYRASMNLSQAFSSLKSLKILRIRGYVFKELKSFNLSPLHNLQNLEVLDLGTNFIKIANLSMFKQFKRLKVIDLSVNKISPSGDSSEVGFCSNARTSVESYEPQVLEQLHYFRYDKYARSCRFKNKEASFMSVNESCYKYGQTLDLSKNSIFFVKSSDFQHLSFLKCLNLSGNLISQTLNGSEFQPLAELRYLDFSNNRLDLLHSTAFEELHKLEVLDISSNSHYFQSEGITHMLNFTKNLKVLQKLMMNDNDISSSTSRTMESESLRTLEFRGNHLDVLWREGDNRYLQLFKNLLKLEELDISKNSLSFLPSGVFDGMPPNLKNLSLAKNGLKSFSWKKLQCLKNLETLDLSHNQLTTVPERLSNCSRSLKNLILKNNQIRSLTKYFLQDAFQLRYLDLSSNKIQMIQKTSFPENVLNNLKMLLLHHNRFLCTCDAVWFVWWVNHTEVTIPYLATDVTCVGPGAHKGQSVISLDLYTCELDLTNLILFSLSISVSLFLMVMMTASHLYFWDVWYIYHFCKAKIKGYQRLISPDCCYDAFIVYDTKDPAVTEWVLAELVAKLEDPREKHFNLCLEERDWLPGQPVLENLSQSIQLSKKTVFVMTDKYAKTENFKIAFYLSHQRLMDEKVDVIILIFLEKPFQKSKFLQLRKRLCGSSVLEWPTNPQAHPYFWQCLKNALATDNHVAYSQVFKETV
In words: TLR7/8-NF-κB reporter assay (HEK-TLR7, SEAP). The format is cell-based. The following applies: HEK-TLR7 cells, 24 hrs; for EC50: read-out: EC50 of TLR7 (mean ± SD). The protocol:
(§1) Human embryonic kidney (HEK) cells that were stably transfected with human TLR7 or TLR8 and an NF-κB—responsive secreted embryonic alkaline phosphatase (SEAP) gene (HEK-TLR7/8) were purchased from InvivoGen (San Diego, Calif.). The procedure used to measure TLR7 or TLR8 agonist activity was conducted as described by Hood et al. (Hood J. D, et al., Human Vaccines, 2010, 6, 4, 322-335). Briefly, HEK-TLR7/8 cells were stimulated with 3.3 or 30 μM of compound in a 96-well plate in DMEM containing 10% FBS and 0.01% Normocin (InvivoGen) for 24 hrs. Twenty microliters of the supernatant from each well was incubated with Quanti-blue substrate solution (InvivoGen) at 37° C. for 1 hour and absorbance was read at 650 nm using a Synergy plate reader (Biotek, Winooski, Vt.).

The target of the next assay is T2, human TLR8 (Homo sapiens, UniProt Q9NR97).
T2 construct: host or cells: HEK (HEK293) cells with NF-kB-responsive SEAP reporter
T2 sequence (Q9NR97 27-1041): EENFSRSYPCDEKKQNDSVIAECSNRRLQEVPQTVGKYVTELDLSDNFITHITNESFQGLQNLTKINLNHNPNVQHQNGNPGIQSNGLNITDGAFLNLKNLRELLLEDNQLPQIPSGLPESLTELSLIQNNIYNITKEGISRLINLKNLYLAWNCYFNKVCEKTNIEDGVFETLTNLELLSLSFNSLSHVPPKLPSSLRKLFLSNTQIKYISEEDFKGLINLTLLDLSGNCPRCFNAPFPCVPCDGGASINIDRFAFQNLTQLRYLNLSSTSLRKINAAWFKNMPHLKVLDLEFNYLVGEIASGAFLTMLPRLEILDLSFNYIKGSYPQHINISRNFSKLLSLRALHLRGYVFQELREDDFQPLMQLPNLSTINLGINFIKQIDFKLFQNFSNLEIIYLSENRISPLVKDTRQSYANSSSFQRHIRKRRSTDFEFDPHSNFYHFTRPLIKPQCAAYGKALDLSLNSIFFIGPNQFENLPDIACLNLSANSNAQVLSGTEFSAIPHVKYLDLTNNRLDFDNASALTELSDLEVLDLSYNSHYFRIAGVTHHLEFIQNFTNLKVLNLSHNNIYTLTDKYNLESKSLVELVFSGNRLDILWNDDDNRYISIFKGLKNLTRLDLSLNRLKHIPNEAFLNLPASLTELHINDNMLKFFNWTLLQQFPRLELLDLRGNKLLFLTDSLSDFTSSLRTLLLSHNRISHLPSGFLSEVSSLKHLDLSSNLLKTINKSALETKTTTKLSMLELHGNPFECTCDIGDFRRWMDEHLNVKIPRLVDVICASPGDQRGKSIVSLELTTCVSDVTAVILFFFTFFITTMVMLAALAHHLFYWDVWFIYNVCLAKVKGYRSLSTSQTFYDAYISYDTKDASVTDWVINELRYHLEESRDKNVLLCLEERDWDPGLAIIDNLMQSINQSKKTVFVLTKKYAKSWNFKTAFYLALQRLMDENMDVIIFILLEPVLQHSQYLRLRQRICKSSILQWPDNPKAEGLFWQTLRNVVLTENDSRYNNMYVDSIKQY
In words: TLR7/8-NF-κB reporter assay (HEK-TLR8, SEAP). Particulars: HEK-TLR8 cells, 24 hrs, read-out: EC50 of TLR8 (mean ± SD). Type of assay: cell-based. On the procedure: as §1
For orientation: A reporter such as luciferase makes a cellular process visible.

On to `COC(=O)c1ccc2c(c1)nc(N)c1ncn(CC(C)(C)O)c12` [Compound 421, 4-amino-1-(2-hydroxy-2-methylpropyl)-7-methoxycarbonyl-1H-imidazo[4,5-c]quinoline], for which the “EC50 of TLR7 (mean ± SD)” value at human TLR7 is “NO EC50”.

Take `COC(=O)c1ccc2c(c1)nc(N)c1ncn(Cc3ccccc3)c12` [Compound 422, 4-amino-1-benzyl--7-methoxycarbonyl-1H-imidazo[4,5-c]quinoline]: the “EC50 of TLR7 (mean ± SD)” value on human TLR7 is “NO EC50”.

Regarding `COC(=O)c1ccc2nc(N)c3ncn(CC(C)C)c3c2c1` [Compound 504, 4-amino-1-isobutyl-8-methoxycarbonyl-1H-imidazo[4,5-c]quinoline], the EC50 on human TLR7 is 21.2 ± 5.22 µM; at human TLR8, 21.2 ± 19.9 µM.

For `CCOC(=O)c1ccc2c(c1)nc(N)c1ncn(CC(C)C)c12` [Compound 511, 4-Amino-7-ethoxycarbonyl-1-(2-methylpropyl)-1H-imidazo[4,5-c]quinoline], the EC50 on human TLR7 came to 7.92 ± 1.49 µM.

`COC(=O)c1ccc2c(c1)nc(N)c1nc(C)n(CC(C)(C)O)c12` [Compound 516, 4-amino-1-(2-hydroxy-2-methylpropyl)-7-methoxycarbonyl-2-methyl-1H-imidazo[4,5-c]quinoline]: the EC50 on human TLR7 was 49.2 ± 17.3 µM.

Take `CCc1nc2c(N)nc3cc(C(=O)OC)ccc3c2n1CC(C)(C)O` [Compound 517, 4-amino-2-ethyl-1-(2-hydroxy-2-methylpropyl)-7-methoxycarbonyl-1H-imidazo[4,5-c]quinoline]: at human TLR7, the EC50 is 29.1 ± 4.33 µM.

For the compound `CCCc1nc2c(N)nc3cc(C(=O)OC)ccc3c2n1CC(C)(C)O` [Compound 518, 4-amino-1-(2-hydroxy-2-methylpropyl)-7-methoxycarbonyl-2-propyl-1H-imidazo[4,5-c]quinoline], on human TLR7, the concentration giving a half-maximal response (EC50) was found to be 23.8 ± 4.34 µM.

For `CCCCc1nc2c(N)nc3cc(C(=O)OC)ccc3c2n1CCOCc1ccccc1` [Compound 520, 4-Amino-1-(2-(benzyloxy)ethyl)-2-butyl-7-methoxycarbonyl 1H-imidazo[4,5-c]quinoline], the EC50 at human TLR7 came to 2.42 ± 0.19 µM; on human TLR8, 31 ± 10.6 µM.

Turning to `CCCCc1nc2c(N)nc3cc(C(=O)OC)ccc3c2n1CCOC` [Compound 521, 4-Amino-2-butyl-1-(2-methoxyethyl)-7-methoxycarbonyl-1H-imidazo[4,5-c]quinolone], on human TLR7, the EC50 was 5.67 ± 0.81 µM.

Regarding `CCCCc1nc2c(N)nc3cc(C(=O)OCC)ccc3c2n1CC(C)(C)O` [Compound 525, 4-Amino-2-butyl-1-(2-hydroxyl-2-methylprop-yl)-7-ethoxycarbonyl-1H-imidazo[4,5-c]quinoline], the EC50 amounted to 2.21 ± 0.44 µM on human TLR7 and 19.9 ± 1.04 µM at human TLR8.

As for `CCCCc1nc2c(N)nc3cc(C(=O)OC(C)C)ccc3c2n1CC(C)(C)O` [Compound 526], the values for the EC50 at human TLR7 and at human TLR8 were 3.94 ± 0.25 µM and 17.2 ± 5.33 µM, respectively.

As for `CCCCCc1nc2c(N)nc3cc(C(=O)OC)ccc3c2n1CC(C)(C)O` [Compound 527, 4-Amino-1-(2-hydroxyl-2-methylpropyl)-7-methoxy carbonyl-2-pentyl-1H-imidazo[4,5-c]quinoline], the EC50 at human TLR7 worked out at 2.6 ± 0.18 µM; at human TLR8, 7.15 ± 0.29 µM.

`CCCCc1nc2c(N)nc3cc(C(=O)OC)ccc3c2n1CCO` [Compound 529, 4-Amino-2-butyl-1-(2-hydroxyethyl)-7-methoxycarbonyl-1H-imidazo[4,5-c]quinoline]: the EC50 was determined as 22.9 ± 5.28 µM at human TLR7 and 4.41 ± 0.49 µM at human TLR8.

For the compound `CCCCc1nc2c(N)nc3cc(C(=O)OC(C)C)ccc3c2n1CC(C)O` (centres unmarked) [Compound 530, 4-Amino-2-butyl-1-(2-hydroxypropyl)-7-isopropoxycarbonyl-1H-imidazo[4,5-c]quinoline], the values for the EC50 on human TLR7 and at human TLR8 were 2.5 ± 0.15 µM and 5.82 ± 0.2 µM, respectively.

Take `CCCCc1nc2c(N)nc3cc(C(=O)OCC)ccc3c2n1CC(C)O` (centres unmarked) [Compound 531, 4-Amino-2-butyl-1-(2-hydroxypropyl)-7-ethoxycarbonyl-1H-imidazo[4,5-c]quinoline]: the figures for the EC50 on human TLR7 and at human TLR8 were 5.23 ± 0.16 µM and 4.73 ± 0.55 µM, respectively.

Turning to `COC(=O)c1ccc2c(c1)nc(N)c1nc(Cc3ccccc3)n(CC(C)(C)O)c12` [Compound 535, 4-Amino-2-benzyl-1-(2-hydroxyl-2-methylprop-yl)-7-methoxycarbonyl-1H-imidazo[4,5-c]quinoline], the EC50 at human TLR7 worked out at 4.79 ± 0.46 µM.

Consider `COCCc1nc2c(N)nc3cc(C(=O)OC)ccc3c2n1CC(C)O` (centres unmarked) [Compound 536, 4-Amino-1-(2-hydroxypropyl)-2-(2-methoxyethyl)-7-carboxylate-1H-imidazo[4,5-c]quinoline], for which the EC50 came out at 20.2 ± 4.11 µM at human TLR7 and 31.7 ± 1.54 µM at human TLR8.

In general, EC50 refers to the concentration giving half of the maximal effect.
